Mass density data for 4 compounds are collected here from the NIST ThermoML archive (doi:10.1016/j.jct.2016.02.027).

± gives the expanded uncertainty stated by the source.

Data set [1] can be described thus: xn = mol fraction of the nth substance listed. Conditions: 298.15 K, 101.3 kPa, Liquid, Vibrating tube method.
The conditions of data set [2]: 298.15 K; 101.33 kPa; Liquid; Vibrating tube method.

The term mass density denotes mass per unit of volume. As to `CCCC[N+]1(C)CCCC1.O=S(=O)([N-]S(=O)(=O)C(F)(F)F)C(F)(F)F` + c1ccccc1, the figures for the mass density in data set [1] (x2 = 0.81) and in data set [1] (x2 = 0.811) were 1117.76 ± 4.3 kg/m3 and 1118.57 ± 4.3 kg/m3, respectively. On to `CCCC[N+]1(C)CCCC1.O=S(=O)([N-]S(=O)(=O)C(F)(F)F)C(F)(F)F` + CCCCCCCC, for which, in data set [1] (x2 = 0.042), the mass density is recorded as 1384.07 ± 4.5 kg/m3.

For the compound `CCCC[N+]1(C)CCCC1.O=S(=O)([N-]S(=O)(=O)C(F)(F)F)C(F)(F)F` + CCCCCCCCCC, the mass density in data set [1] (x2 = 0.023) was found to be 1387.66 ± 4.5 kg/m3.

With `CCCC[N+]1(C)CCCC1.O=S(=O)([N-]S(=O)(=O)C(F)(F)F)C(F)(F)F`, the mass density in data set [2] worked out at 1394.68 ± 6 kg/m3.
